Values quoted from earlier work as cited in patent publication US7947297B2, “Mixtures of phenolic and inorganic materials with antimicrobial activity” (BASF SE, priority 2000, dated 2011).

Details: polypropylene samples, Xenon Arc Weather-Ometer at 035 W/m^2, 63° C.

Q: With `Oc1cc(Cl)ccc1Oc1ccc(Cl)cc1Cl` [Irgaguard ® B1000, 2,4,4′-trichloro-2′-hydroxydiphenyl ether] as the compound, how does the discoloration upon weathering read?
A: discolor within hours
